Here are results for 2 substances from US20050026270A1 (University of Maryland, priority 1999, published 2005).

Data set [1] can be described thus: Stability of subtilin: activity retained after storage or exposure to light.
The conditions of data set [2]: 120 h.

Turning to subtilin, the “loss of activity on exposure to light” value in data set [1] (exposure to light) is “rapid loss of activity”. Further, in data set [1] (stored at 4° C. or 20° C.), the “loss of activity on storage” value is given as “loses activity rapidly”.
With subtilin [stable subtilin], the “activity remaining after storage” value in data set [2] is listed as “greater than 50%”.
